Some test systems named below: HCT-116 colon; HOP-92 NSCLC; LOX IMVI melanoma; NCI-H226 lung; SF-539 CNS; U251 CNS; UACC-257 melanoma; OVCAR-5 ovarian; SF-295 CNS; PC-3 prostate.
Holding throughout (test): NCI anticancer screen, dose series, 48 h

Several values for one entry are separate records, joined by “and”; a condition that tells them apart may be missing. Equal values may be shown once.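 Five compound concentrations were applied to cells in 96-well plates for 48 hours; endpoints were derived by simple linear interpolation of the resulting dose-response curve. Here, GI50 denotes the concentration required for 50% inhibition of growth. TGI denotes the concentration required for complete inhibition of growth.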

Consider `CCC(C)CC(C)CC(C)/C=C(\C)C1=C(C)CC(C)(O)O1` (stereo unspecified), for which the TGI is over 100 µM with HCT-116 colon; 79.7 µM with HOP-92 NSCLC; over 100 µM with LOX IMVI melanoma; over 100 µM with NCI-H226 lung; over 100 µM in the assay on SF-539 CNS; over 100 µM in the assay on U251 CNS. Also, the TGI in the assay on UACC-257 melanoma is over 100 µM.
`CCOC(=O)c1cc(-c2ccc(-c3cc(C(=O)OCC)c(C#N)c(N)c3C#N)cc2)c(C#N)c(N)c1C#N`: the TGI in the assay with HCT-116 colon, in the assay with LOX IMVI melanoma, in the assay on NCI-H226 lung, with OVCAR-5 ovarian, in the assay on SF-295 CNS and in the assay with SF-539 CNS was over 100 µM throughout. The TGI in the assay with U251 CNS and in the assay on UACC-257 melanoma was over 100 µM each time.
For the molecule `Cc1cccc(C(=O)O)c1C(=O)c1cccc2ccccc12`, the TGI in the assay with HCT-116 colon, with LOX IMVI melanoma, with NCI-H226 lung, with OVCAR-5 ovarian, in the assay with SF-295 CNS and in the assay on U251 CNS was over 100 µM throughout. In the assay on UACC-257 melanoma, this molecule displayed a TGI of over 100 µM.
Regarding `Cn1cc(C2=C(c3c[nH]c4ccccc34)C(=O)NC2=O)c2ccccc21`, the GI50 is 1.51 µM with HCT-116 colon; 1.3 µM with LOX IMVI melanoma; 1.99 µM with NCI-H226 lung; over 25 µM with OVCAR-5 ovarian; 3.91 µM with PC-3 prostate; 0.201 µM in the assay with SF-295 CNS. Further, the GI50 was 0.195 µM with SF-539 CNS and 1.36 µM in the assay with U251 CNS. Besides, the TGI in the assay on HCT-116 colon is over 25 µM; with LOX IMVI melanoma, over 25 µM; with NCI-H226 lung it was over 25 µM; with OVCAR-5 ovarian it was over 25 µM; in the assay on PC-3 prostate, over 25 µM; in the assay with SF-539 CNS, 1.14 µM. In the assay on U251 CNS, the TGI was over 25 µM.
On to `CCC[CH2][Sn]([CH2]CCC)([S]C#N)[S]C#N`, for which the GI50 is 1.45 µM in the assay with HCT-116 colon; 1.79 µM in the assay on HOP-92 NSCLC; 0.85 µM in the assay with LOX IMVI melanoma; 1.77 µM in the assay on NCI-H226 lung; 1.56 µM in the assay on OVCAR-5 ovarian; 1.53 µM in the assay on SF-295 CNS. Moreover, the GI50 with SF-539 CNS was 1.24 µM; with U251 CNS, 0.768 µM; with UACC-257 melanoma, 0.965 µM. Also, the TGI in the assay on HCT-116 colon was 3.11 µM; in the assay on HOP-92 NSCLC, 3.5 µM; with LOX IMVI melanoma, 2.47 µM; in the assay on NCI-H226 lung it was 3.25 µM; in the assay with OVCAR-5 ovarian, 2.96 µM; with SF-295 CNS it was 2.94 µM. The TGI with SF-539 CNS stood at 2.55 µM; in the assay on U251 CNS, 2.04 µM; in the assay on UACC-257 melanoma it was 2.4 µM.
With `N#Cc1ccccc1NC(=O)C(=O)C1NC(=S)NC1=O` (stereo unspecified), the TGI with HCT-116 colon, in the assay with HOP-92 NSCLC, with LOX IMVI melanoma, with NCI-H226 lung, in the assay with OVCAR-5 ovarian and in the assay with SF-295 CNS was over 100 µM throughout. Moreover, the TGI in the assay on SF-539 CNS, in the assay on U251 CNS and in the assay with UACC-257 melanoma was over 100 µM in each case.
As to `CCOC(=O)/C(=C/c1cccc(Cl)c1)N(CC)CC`, the TGI was over 100 µM in the assay on HCT-116 colon; 84.2 µM in the assay with HOP-92 NSCLC; over 100 µM with LOX IMVI melanoma; over 100 µM with NCI-H226 lung; over 100 µM with OVCAR-5 ovarian; over 100 µM in the assay on SF-295 CNS. Moreover, the TGI with SF-539 CNS, with U251 CNS and with UACC-257 melanoma was over 100 µM each time.
As for `CC1=C(SC#N)S(=O)(=O)N(c2ccccc2)C(C)=C1SC#N`, the TGI with HCT-116 colon is 69.8 µM; in the assay with HOP-92 NSCLC, 88.7 µM; in the assay on LOX IMVI melanoma, over 100 µM; in the assay with NCI-H226 lung it was 81.6 µM; in the assay with OVCAR-5 ovarian it was over 100 µM; in the assay with SF-295 CNS, 67.1 µM. For the same molecule, the TGI is over 100 µM in the assay on SF-539 CNS, 35.4 µM in the assay with U251 CNS and over 100 µM in the assay on UACC-257 melanoma.
For `Cc1ccc2nc(NC(=O)C(=O)C(C#N)c3ccc(Cl)cc3)sc2c1` (stereo unspecified), the TGI in the assay on HCT-116 colon, in the assay on HOP-92 NSCLC, in the assay on LOX IMVI melanoma, with NCI-H226 lung, in the assay with OVCAR-5 ovarian and in the assay on SF-295 CNS was over 50 µM each time. Besides, the TGI in the assay on SF-539 CNS, in the assay with U251 CNS and in the assay with UACC-257 melanoma was over 50 µM throughout.
For the molecule `COc1cc2c(c(OC)c1OC)-c1ccc(SC)c(=O)cc1[C@@H](NCc1ccc([N+](=O)[O-])cc1)CC2`, the TGI in the assay with HOP-92 NSCLC is over 100 µM; in the assay with LOX IMVI melanoma, over 100 µM; in the assay with NCI-H226 lung it was 0.0134 µM; with OVCAR-5 ovarian, over 100 µM; with SF-295 CNS, over 100 µM; in the assay on SF-539 CNS, 0.00672 µM and 0.0112 µM. The molecule also showed a TGI in the assay with UACC-257 melanoma of over 100 µM. Besides, the GI50 was over 100 µM in the assay with OVCAR-5 ovarian and 0.0771 µM in the assay with UACC-257 melanoma.
Regarding `C/C(CN1C(=O)c2ccccc2C1=O)=N\NS(=O)(=O)c1cccc(C(=O)O)c1`, the TGI in the assay with HCT-116 colon, with NCI-H226 lung, in the assay with OVCAR-5 ovarian, in the assay on SF-295 CNS, in the assay with SF-539 CNS and with U251 CNS was over 100 µM in each case. Moreover, the TGI with UACC-257 melanoma is over 100 µM.
On to `NC1c2ccccc2Nc2ccccc21`, for which the TGI was found to be 13.6 µM in the assay with HCT-116 colon; 16.1 µM in the assay on HOP-92 NSCLC; 13.2 µM in the assay on LOX IMVI melanoma; 27.9 µM with NCI-H226 lung; 25.6 µM in the assay on OVCAR-5 ovarian; 17 µM in the assay on SF-295 CNS. In the assay on UACC-257 melanoma, the TGI was determined as 17.4 µM.
As for `CC(C)c1cc(C(C)C)c(S(=O)(=O)N=[N+]=[N-])c(C(C)C)c1`, the TGI with HCT-116 colon, in the assay on HOP-92 NSCLC, with LOX IMVI melanoma, in the assay with NCI-H226 lung, with OVCAR-5 ovarian and in the assay on SF-539 CNS was over 100 µM in each case. Also, the TGI in the assay on U251 CNS and in the assay on UACC-257 melanoma was over 100 µM throughout.
`CC(C)c1cccc(C(C)C)c1N1C(=O)C(=O)C(c2nc3ccccc3o2)C(=O)C1=O`: the TGI in the assay with HCT-116 colon, with HOP-92 NSCLC, with LOX IMVI melanoma, with NCI-H226 lung, in the assay on OVCAR-5 ovarian and in the assay with SF-295 CNS was over 100 µM each time. Besides, the TGI in the assay with SF-539 CNS, in the assay with U251 CNS and in the assay with UACC-257 melanoma was over 100 µM throughout.

The values above are taken from PubChem BioAssay (NCI).
